According to patent publication US20240336574A1 (LATIGO BIOTHERAPEUTICS, INC., priority 2021, published 2024):
Read-outs that look alike come from different tables or passages of the source.

Target: T1, recombinant human NaV1.8 stably transfected HEK cells (Homo sapiens, UniProt Q9Y5Y9)
T1 construct: expressed in transfected cells; host or cells: HEK cells, stably transfected
Assay: Compound profiling on NaV1.8, human NaV1.8 cell line, SyncroPatch384PE automated patch clamp assay (Example 102, first set of compounds, Table 16)
Assay type: cell-based
Settings: human NaV1.8 HEK cells, Table 16 (first set of compounds)
Method in brief: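 IC50s come from two read-outs: resting-state block (P1, 10 mV step from −120 mV) and inactivated-state block (P2, after 10 s at −40 mV), scaled between DMSO and 250 μM tetracaine. Compounds (20–0.001 μM final, 1:3 steps) were applied for 5 min, 15 s sweeps. Cells kept at 30 °C the day before.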

[1] = inactivated state block (P2 measurement), read-out: P2IC50
[2] = resting state block (P1 measurement), read-out: P1IC50

T1 sequence (Q9Y5Y9 whole entry): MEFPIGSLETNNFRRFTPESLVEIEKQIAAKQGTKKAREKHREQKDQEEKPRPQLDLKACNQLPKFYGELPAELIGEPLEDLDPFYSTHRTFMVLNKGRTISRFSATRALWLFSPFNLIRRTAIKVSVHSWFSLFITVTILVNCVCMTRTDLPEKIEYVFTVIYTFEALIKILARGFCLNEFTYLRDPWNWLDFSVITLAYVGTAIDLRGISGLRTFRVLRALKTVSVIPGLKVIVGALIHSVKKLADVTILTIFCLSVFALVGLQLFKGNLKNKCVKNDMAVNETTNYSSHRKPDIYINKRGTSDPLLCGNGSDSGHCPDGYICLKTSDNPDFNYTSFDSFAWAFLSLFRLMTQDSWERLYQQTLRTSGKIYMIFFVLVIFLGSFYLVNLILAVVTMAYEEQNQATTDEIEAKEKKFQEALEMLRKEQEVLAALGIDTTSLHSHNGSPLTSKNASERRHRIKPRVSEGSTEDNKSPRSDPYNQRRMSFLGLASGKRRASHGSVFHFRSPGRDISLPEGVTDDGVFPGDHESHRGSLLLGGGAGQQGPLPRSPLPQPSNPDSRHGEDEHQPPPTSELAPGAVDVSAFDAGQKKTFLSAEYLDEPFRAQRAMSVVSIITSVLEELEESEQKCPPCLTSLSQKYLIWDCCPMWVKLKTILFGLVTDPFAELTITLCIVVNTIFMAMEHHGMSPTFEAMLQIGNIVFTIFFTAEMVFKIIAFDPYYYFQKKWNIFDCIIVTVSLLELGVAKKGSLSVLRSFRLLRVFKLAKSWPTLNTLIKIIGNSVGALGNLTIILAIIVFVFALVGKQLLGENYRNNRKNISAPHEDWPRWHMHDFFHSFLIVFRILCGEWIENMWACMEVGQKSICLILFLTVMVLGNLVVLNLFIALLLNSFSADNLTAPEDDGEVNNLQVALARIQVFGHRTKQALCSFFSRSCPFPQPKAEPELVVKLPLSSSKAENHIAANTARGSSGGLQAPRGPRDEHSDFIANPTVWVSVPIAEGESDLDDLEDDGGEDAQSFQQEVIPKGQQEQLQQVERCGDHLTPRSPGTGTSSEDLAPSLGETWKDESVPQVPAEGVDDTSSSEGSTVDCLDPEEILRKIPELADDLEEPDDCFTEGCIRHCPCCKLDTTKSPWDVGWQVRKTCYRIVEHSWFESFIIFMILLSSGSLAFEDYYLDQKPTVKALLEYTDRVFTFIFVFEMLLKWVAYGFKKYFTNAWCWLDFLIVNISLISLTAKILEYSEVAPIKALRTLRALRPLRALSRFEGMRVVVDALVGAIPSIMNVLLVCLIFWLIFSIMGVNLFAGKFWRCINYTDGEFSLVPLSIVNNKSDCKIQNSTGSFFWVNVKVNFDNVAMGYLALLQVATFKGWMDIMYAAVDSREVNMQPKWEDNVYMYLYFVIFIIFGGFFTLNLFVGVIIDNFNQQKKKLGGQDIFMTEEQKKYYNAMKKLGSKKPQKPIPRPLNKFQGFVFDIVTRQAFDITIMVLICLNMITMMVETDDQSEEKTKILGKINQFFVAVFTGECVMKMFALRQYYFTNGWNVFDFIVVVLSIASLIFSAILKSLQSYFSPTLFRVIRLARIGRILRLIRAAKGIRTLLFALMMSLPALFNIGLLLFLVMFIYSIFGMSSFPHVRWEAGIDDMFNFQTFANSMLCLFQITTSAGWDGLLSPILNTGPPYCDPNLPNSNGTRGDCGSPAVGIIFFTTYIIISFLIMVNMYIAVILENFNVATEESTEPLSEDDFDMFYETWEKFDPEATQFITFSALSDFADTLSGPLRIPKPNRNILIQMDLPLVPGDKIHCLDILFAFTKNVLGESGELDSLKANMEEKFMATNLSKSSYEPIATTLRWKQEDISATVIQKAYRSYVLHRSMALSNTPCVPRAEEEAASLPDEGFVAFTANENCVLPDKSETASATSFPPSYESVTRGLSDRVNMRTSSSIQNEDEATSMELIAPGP

SMILES | IC50 [1] [nM] | IC50 [2] [nM]
Cc1ccc2c(Oc3ncc(C(F)(F)F)cc3C(=O)Nc3cccc(S(C)(=O)=O)c3)cccc2n1 [Compound 1625] | 200 to 500 | 200 to 500
CS(=O)(=O)c1cccc(NC(=O)c2cc(C(F)(F)F)cnc2OCC23CC(F)(C2)C3)c1 [Compound 1629] | 40 to 200 | 40 to 200
CC(C#N)Oc1cc(F)c(Oc2ncc(C(F)(F)F)cc2C(=O)Nc2ccc(C(N)=O)cc2)cc1F (centres unmarked) [Compound 1688] | 200 to 500 | 200 to 500
COc1cc(C#N)ccc1Oc1ncc(Br)cc1C(=O)Nc1cccc(S(C)(=N)=O)c1 (centres unmarked) [Compound 1686] | ≤ 20 | ≤ 20
COC(=O)C12CC(NC(=O)c3cc(C(F)(F)F)cnc3Oc3ccc(C#N)cc3OC)(C1)C2 [Compound 1678] | 200 to 500 | 200 to 500
CS(=O)(=O)c1cccc(NC(=O)c2cc(C(F)(F)F)cnc2OCC2CC2)c1 [Compound 1602] | 200 to 500 | 200 to 500
Cc1c(C(F)(F)F)nnc(Oc2ccc(OC(C)C)c(F)c2F)c1C(=O)Nc1cccc(S(C)(=N)=O)c1 (centres unmarked) [Compound 1501, 3-[2,3-difluoro-4-(propan-2-yloxy)phenoxy]-N-{3-[imino(methyl)oxo-λ^6-sulfanyl]phenyl}-5-methyl-6-(trifluoromethyl)pyridazine-4-carboxamide] | ≤ 20 | ≤ 20
Cc1nc(F)ccc1Oc1ncc(C(F)(F)F)cc1C(=O)Nc1cccc(S(C)(=N)=O)c1 (centres unmarked) [Compound 1589] | 40 to 200 | 40 to 200
COc1ccc(Oc2nnc(C(F)(F)F)c(C)c2C(=O)Nc2cccc(S(C)(=O)=O)c2)c(C)c1F [Compound 1427] | ≤ 20 | ≤ 20
NC(=O)c1cccc(NC(=O)c2cc(C(F)(F)F)cnc2OC2CC(C(F)(F)F)C2)c1 (mixture of isomers) [Compound 1667] | 200 to 500 | 200 to 500
CC(C)Oc1ccc(Oc2ncc(C(F)(F)F)cc2C(=O)Nc2cccc(S(C)(=N)=O)c2)c(F)c1F (centres unmarked) [Compound 1707] | ≤ 20 | ≤ 20
Cc1c(C(F)(F)F)nnc(Oc2ccc(OC(F)(F)F)c(F)c2F)c1C(=O)Nc1cccc(S(C)(=N)=O)c1 (single isomer, unassigned) [Compound 1478, 3-[2,3-difluoro-4-(trifluoromethoxy)phenoxy]-5-methyl-N-[3-(methylsulfonimidoyl)phenyl]-6-(trifluoromethyl)pyridazine-4-carboxamide] | – | ≤ 20
Cc1cc(F)ccc1Oc1nnc(C2CC2)c(C)c1C(=O)Nc1cccc(S(C)(=N)=O)c1 (centres unmarked) [Compound 1433, 6-cyclopropyl-3-(4-fluoro-2-methyl-phenoxy)-5-methyl-N-[3-(methylsulfonimidoyl)phenyl]pyridazine-4-carboxamide] | 40 to 200 | 40 to 200
COc1c(Oc2ncc(Br)cc2C(=O)Nc2cccc(C(N)=O)c2)ccc(F)c1F [Compound 1680] | 20 to 40 | 20 to 40
COc1cc(F)ccc1Oc1ncc(C(F)(F)F)cc1C(=O)Nc1cc(S(C)(=O)=O)ccc1F [Compound 1576] | 40 to 200 | 40 to 200
Cc1nc(OC2CCC2)ccc1Oc1ncc(C(F)(F)F)cc1C(=O)Nc1cccc(C(N)=O)c1 [Compound 1565, N-(3-carbamoylphenyl)-2-[[6-(cyclobutoxy)-2-methyl-3-pyridyl]oxy]-5-(trifluoromethyl)pyridine-3-carboxamide] | 200 to 500 | 200 to 500
COc1cc(C#N)ccc1Oc1nnc(C(F)(F)F)c(C)c1C(=O)Nc1ccc(OC)c(C(N)=O)c1 [Compound 1541, N-(3-carbamoyl-4-methoxy-phenyl)-3-(4-cyano-2-methoxy-phenoxy)-5-methyl-6-(trifluoromethyl)pyridazine-4-carboxamide] | 200 to 500 | 200 to 500
COc1cc(C#N)ccc1Oc1ncc(C(F)(F)F)cc1C(=O)Nc1cccc(S(N)(=O)=O)c1 [Compound 1561, 2-(4-cyano-2-methoxyphenoxy)-N-(3-sulfamoylphenyl)-5-(trifluoromethyl)pyridine-3-carboxamide] | ≤ 20 | ≤ 20

Further lines, results first:

IC50 [1] [nM] | IC50 [2] [nM] | SMILES
≤ 20 | ≤ 20 | Cc1c(Oc2nnc(C(F)(F)F)c(C)c2C(=O)Nc2cccc(S(C)(=O)=O)c2)ccc(Cl)c1F [Compound 1421]
≤ 20 | ≤ 20 | Cc1c(C(F)(F)F)nnc(Oc2ccc(OC(F)(F)F)c(F)c2F)c1C(=O)Nc1cccc(S(C)(=N)=O)c1 (single isomer, unassigned) [Compound 1477, 3-[2,3-difluoro-4-(trifluoromethoxy)phenoxy]-5-methyl-N-[3-(methylsulfonimidoyl)phenyl]-6-(trifluoromethyl)pyridazine-4-carboxamide]
20 to 40 | ≤ 20 | Cc1cc(F)ccc1Oc1nnc(C(F)(F)F)c(C)c1C(=O)Nc1cccc(S(C)(=N)=O)c1 (centres unmarked) [Compound 20, 3-(4-Fluoro-2-methylphenoxy)-5-methyl-N-(3-(S-methylsulfonimidoyl)phenyl)-6-(trifluoromethyl)pyridazine-4-carboxamide]
200 to 500 | 200 to 500 | CS(=N)(=O)c1cccc(NC(=O)c2cc(C(F)(F)F)cnc2Oc2ccc(-n3ccnc3)cc2)c1 (centres unmarked) [Compound 1586]
≤ 20 | ≤ 20 | Cc1nc(Br)ccc1Oc1ncc(C(F)(F)F)cc1C(=O)Nc1cccc(S(C)(=N)=O)c1 (centres unmarked) [Compound 1684]
≤ 20 | ≤ 20 | Cc1cc(F)ccc1Oc1ncc(C(F)(F)F)cc1C(=O)Nc1cccc(S(C)(=O)=O)c1 [Compound 1574, 2-(4-fluoro-2-methyl-phenoxy)-N-(3-methylsulfonylphenyl)-5-(trifluoromethyl)pyridine-3-carboxamide]
200 to 500 | 200 to 500 | Cc1cc(F)ccc1Oc1nnc(C(F)(F)F)c(NC2CC2)c1C(=O)Nc1cccc([S@@](C)(=N)=O)c1 [Compound 1522, (S)-5-(cyclopropylamino)-3-(4-fluoro-2-methylphenoxy)-N-(3-(S-methylsulfonimidoyl)phenyl)-6-(trifluoromethyl)pyridazine-4-carboxamide]
200 to 500 | 200 to 500 | COc1nc(C)c(Oc2ncc(C(F)(F)F)cc2C(=O)Nc2cccc(S(C)(=N)=O)c2)cc1F (centres unmarked) [Compound 1639]
≤ 20 | ≤ 20 | Cc1c(C(F)(F)F)nnc(Oc2ccc(OC(F)(F)F)c(F)c2F)c1C(=O)Nc1cccc(S(C)(=O)=O)c1 [Compound 1419]
≤ 20 | ≤ 20 | Cc1cc(F)ccc1Oc1nnc(C(F)(F)F)c(C)c1C(=O)Nc1cccc(S(N)(=O)=O)c1 [Compound 1466, 3-(4-fluoro-2-methylphenoxy)-5-methyl-N-(3-sulfamoylphenyl)-6-(trifluoromethyl)pyridazine-4-carboxamide]
200 to 500 | 200 to 500 | COc1cc(C#N)ccc1Oc1ncc(C23CCOCC2C3)cc1C(=O)Nc1cccc(S(C)(=N)=O)c1 (centres unmarked) [Compound 1725, 2-(4-cyano-2-methoxy-phenoxy)-N-[3-(methylsulfonimidoyl)phenyl]-5-(3-oxabicyclo[4.1.0]heptan-6-yl)pyridine-3-carboxamide]
≤ 20 | ≤ 20 | Cc1cc(F)ccc1Oc1ncc(C(F)(F)F)c(C)c1C(=O)Nc1cccc(S(C)(=N)=O)c1 (centres unmarked) [Compound 1557, 2-(4-fluoro-2-methylphenoxy)-4-methyl-N-(3-(S-methylsulfonimidoyl)phenyl)-5-(trifluoromethyl)nicotinamide]
200 to 500 | 200 to 500 | COc1cc(C#N)ccc1Oc1ncc(C(F)(F)F)cc1C(=O)NC12CC(C(N)=O)(C1)C2 [Compound 1721, N-(3-carbamoyl-1-bicyclo[1.1.1]pentanyl)-2-(4-cyano-2-methoxy-phenoxy)-5-(trifluoromethyl)pyridine-3-carboxamide]
200 to 500 | 40 to 200 | CS(=N)(=O)c1cccc(NC(=O)c2cc(C(F)(F)F)cnc2OC23CC(C(F)(F)F)(C2)C3)c1 (centres unmarked) [Compound 1633]
200 to 500 | 200 to 500 | COc1cc(C#N)ccc1Oc1nnc(C(F)(F)F)c(C)c1C(=O)Nc1cccc(C(=O)NCCO)c1 [Compound 1441, 3-(4-cyano-2-methoxy-phenoxy)-N-[3-(2-hydroxyethylcarbamoyl)phenyl]-5-methyl-6-(trifluoromethyl)pyridazine-4-carboxamide]
≤ 20 | ≤ 20 | Cc1cc(F)ccc1Oc1ncc(Br)c(C)c1C(=O)Nc1cccc([S@](C)(=N)=O)c1 [Compound 1731, (R)-5-bromo-2-(4-fluoro-2-methylphenoxy)-4-methyl-N-(3-(S-methylsulfonimidoyl)phenyl)nicotinamide]
≤ 20 | ≤ 20 | COc1cc(F)ccc1Oc1nnc(C(F)(F)F)c(C)c1C(=O)Nc1ccc(C(N)=O)cc1 [Compound 1415]
40 to 200 | 40 to 200 | COc1cc(C#N)ccc1Oc1nnc(C(F)(F)F)c(C)c1C(=O)Nc1cncc(C#N)c1 [Compound 1540, 3-(4-cyano-2-methoxy-phenoxy)-N-(5-cyano-3-pyridyl)-5-methyl-6-(trifluoromethyl)pyridazine-4-carboxamide]
40 to 200 | 40 to 200 | Cc1cc(F)ccc1Oc1nccc(C(F)(F)F)c1C(=O)Nc1cccc(S(C)(=N)=O)c1 (centres unmarked) [Compound 1650]
≤ 20 | ≤ 20 | COc1nc(Br)ccc1Oc1ncc(C(F)(F)F)cc1C(=O)Nc1cccc(S(C)(=O)=O)c1 [Compound 1603]
20 to 40 | 40 to 200 | COc1cc(C#N)ccc1Oc1nc(C(F)(F)F)nc(C)c1C(=O)Nc1cccc(C(N)=O)c1 [Compound 1742, N-(3-carbamoylphenyl)-4-(4-cyano-2-methoxy-phenoxy)-6-methyl-2-(trifluoromethyl)pyrimidine-5-carboxamide]
